In PubChem BioAssay (NCI):
“And” between values parts separate entries of the source, which are not always exact repeats. Equal entries are not always repeated.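 Following 48 hours of exposure in 96-well plates, responses at five concentrations were used to interpolate endpoints linearly. GI50: concentration for 50% inhibition of growth. Definition used: TGI = concentration required for complete inhibition of growth.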

What was measured:
Test in all cases: NCI anticancer screen, dose series, 48 h
SF-539 CNS = tested on: SF-539 CNS
TK-10 renal = tested on: TK-10 renal
UACC-257 melanoma = tested on: UACC-257 melanoma
DU-145 prostate = tested on: DU-145 prostate
PC-3 prostate = tested on: PC-3 prostate
EKVX NSCLC = tested on: EKVX NSCLC
NCI-H460 lung = tested on: NCI-H460 lung
SK-OV-3 ovarian = tested on: SK-OV-3 ovarian
MCF7 breast = tested on: MCF7 breast
HCT-116 colon = tested on: HCT-116 colon

CCc1oc2ccccc2c1C(=O)c1cc(I)c(O)c(I)c1
GI50 (SF-539 CNS): 2.28 µM
TGI (SF-539 CNS): 10.4 µM
GI50 (TK-10 renal): 9.81 µM
TGI (TK-10 renal): 23.4 µM
GI50 (UACC-257 melanoma): 6.13 µM
TGI (UACC-257 melanoma): 21.1 µM
GI50 (DU-145 prostate): 2.37 µM
TGI (DU-145 prostate): 7.4 µM
GI50 (PC-3 prostate): 3.75 µM
TGI (PC-3 prostate): 19.5 µM
GI50 (EKVX NSCLC): 3.59 µM
TGI (EKVX NSCLC): 15.4 µM
GI50 (NCI-H460 lung): 2.63 µM
TGI (NCI-H460 lung): 8.94 µM
GI50 (SK-OV-3 ovarian): 5.46 µM
TGI (SK-OV-3 ovarian): 18.4 µM
GI50 (MCF7 breast): 4.02 µM
TGI (MCF7 breast): 14.7 µM
GI50 (HCT-116 colon): 2.91 µM
TGI (HCT-116 colon): 12 µM

COc1cc2c(c(OC)c1OC)C(=O)[C@@H]1c3ccc([N+](=O)[O-])cc3C(=O)N(CCCBr)[C@H]21
GI50 (SF-539 CNS): 11.8 µM
TGI (SF-539 CNS): 38.7 µM
GI50 (TK-10 renal): 8.04 µM
TGI (TK-10 renal): 34.9 µM
GI50 (UACC-257 melanoma): 5.21 µM
TGI (UACC-257 melanoma): 30.8 µM
GI50 (DU-145 prostate): 14.6 µM
TGI (DU-145 prostate): 53.2 µM
GI50 (PC-3 prostate): 13.1 µM
TGI (PC-3 prostate): 55.6 µM
GI50 (EKVX NSCLC): 12.7 µM
TGI (EKVX NSCLC): 61.6 µM
GI50 (NCI-H460 lung): 8.15 µM
TGI (NCI-H460 lung): 62.2 µM
GI50 (SK-OV-3 ovarian): 22.3 µM
TGI (SK-OV-3 ovarian): 74.5 µM
GI50 (MCF7 breast): 4.71 µM
TGI (MCF7 breast): > 100 µM
GI50 (HCT-116 colon): 4.59 µM
TGI (HCT-116 colon): 51 µM

Cc1ccc(C(=O)Nc2ccc(CN3CCN(C)CC3)c(C(F)(F)F)c2)cc1C#Cc1cnc(N)c2ccccc12
GI50 (SF-539 CNS): 0.729 µM
TGI (SF-539 CNS): 1.41 µM
GI50 (TK-10 renal): 0.562 µM
TGI (TK-10 renal): 1.36 µM
GI50 (UACC-257 melanoma): 0.736 µM
TGI (UACC-257 melanoma): 1.73 µM
GI50 (DU-145 prostate): 0.167 µM
TGI (DU-145 prostate): 0.861 µM
GI50 (PC-3 prostate): 0.703 µM
TGI (PC-3 prostate): 1.72 µM
GI50 (EKVX NSCLC): 0.514 µM
TGI (EKVX NSCLC): 1.28 µM
GI50 (NCI-H460 lung): 0.32 µM
TGI (NCI-H460 lung): 1.08 µM
GI50 (SK-OV-3 ovarian): 0.684 µM
TGI (SK-OV-3 ovarian): 7.9 µM
GI50 (MCF7 breast): 0.799 µM
TGI (MCF7 breast): 1.61 µM
GI50 (HCT-116 colon): 0.336 µM
TGI (HCT-116 colon): 1.01 µM

CS(=O)(=O)c1cc(=O)c2ccccc2s1
TGI (SF-539 CNS): 27.6 µM
TGI (TK-10 renal): 13.7 µM
TGI (UACC-257 melanoma): 7.92 µM
TGI (DU-145 prostate): 33.3 µM
TGI (PC-3 prostate): 33.4 µM
TGI (EKVX NSCLC): 21.4 µM
TGI (NCI-H460 lung): 41.2 µM
TGI (SK-OV-3 ovarian): 32.3 µM
TGI (MCF7 breast): 8.18 µM
TGI (HCT-116 colon): 4.05 µM

C=C1CC[C@@H]2[C@](C)(COC(C)=O)[C@H](OC(C)=O)CC[C@@]2(C)[C@@H]1CC(Nc1ccc(S(=O)(=O)Nc2ncccn2)cc1)C1=CCOC1=O (some centres not stated)
GI50 (SF-539 CNS): 1.5 µM
TGI (SF-539 CNS): 2.94 µM
GI50 (TK-10 renal): 2.77 µM
TGI (TK-10 renal): 6.03 µM
GI50 (UACC-257 melanoma): 2.34 µM
TGI (UACC-257 melanoma): 6.07 µM
GI50 (DU-145 prostate): 1.62 µM
TGI (DU-145 prostate): 3.07 µM
GI50 (PC-3 prostate): 2.11 µM
TGI (PC-3 prostate): 5.07 µM
GI50 (EKVX NSCLC): 8.18 µM
TGI (EKVX NSCLC): 20.6 µM
GI50 (NCI-H460 lung): 1.98 µM
TGI (NCI-H460 lung): 4.06 µM
GI50 (SK-OV-3 ovarian): 6.27 µM
TGI (SK-OV-3 ovarian): 18.3 µM
GI50 (MCF7 breast): 1.07 µM
TGI (MCF7 breast): 4.54 µM
GI50 (HCT-116 colon): 0.879 µM
TGI (HCT-116 colon): 2.49 µM

Fc1ccc(-c2nn3ncccc3c2-c2ccnc(Nc3ccc4c(c3)OCCO4)n2)cc1
GI50 (SF-539 CNS): 6.59 µM
TGI (SF-539 CNS): > 25 µM
GI50 (TK-10 renal): 1.35 µM
TGI (TK-10 renal): 9.93 µM
GI50 (UACC-257 melanoma): 6.22 µM
TGI (UACC-257 melanoma): 19.7 µM
GI50 (DU-145 prostate): 6.26 µM
TGI (DU-145 prostate): > 25 µM
GI50 (PC-3 prostate): 7.32 µM
TGI (PC-3 prostate): > 25 µM
GI50 (EKVX NSCLC): 2.16 µM
TGI (EKVX NSCLC): > 25 µM
GI50 (NCI-H460 lung): 5.64 µM
TGI (NCI-H460 lung): > 23.3 µM
GI50 (SK-OV-3 ovarian): 1.23 µM
TGI (SK-OV-3 ovarian): > 25 µM
GI50 (MCF7 breast): 2.79 µM
TGI (MCF7 breast): > 25 µM
GI50 (HCT-116 colon): 3.05 µM
TGI (HCT-116 colon): 7.09 µM

Nc1nc(-c2cccc(Cl)c2)c(-c2ccc3ncccc3n2)s1
GI50 (SF-539 CNS): > 25 µM
TGI (SF-539 CNS): > 25 µM
GI50 (TK-10 renal): > 17.2 µM
TGI (TK-10 renal): > 25 µM
GI50 (UACC-257 melanoma): > 25 µM
TGI (UACC-257 melanoma): > 25 µM
GI50 (DU-145 prostate): > 25 µM
TGI (DU-145 prostate): > 25 µM
GI50 (PC-3 prostate): > 25 µM
TGI (PC-3 prostate): > 25 µM
GI50 (EKVX NSCLC): > 25 µM
TGI (EKVX NSCLC): > 25 µM
GI50 (NCI-H460 lung): > 25 µM
TGI (NCI-H460 lung): > 25 µM
GI50 (SK-OV-3 ovarian): > 25 µM
TGI (SK-OV-3 ovarian): > 25 µM
GI50 (MCF7 breast): > 25 µM
TGI (MCF7 breast): > 25 µM
GI50 (HCT-116 colon): > 25 µM
TGI (HCT-116 colon): > 25 µM

NCCCn1c2c(c3ccc([N+](=O)[O-])cc3c1=O)C(=O)c1cc(Br)ccc1-2
GI50 (SF-539 CNS): 0.0132 µM and 0.0109 µM
TGI (SF-539 CNS): 0.0699 µM and 0.0472 µM
GI50 (TK-10 renal): 0.267 µM and 0.28 µM
TGI (TK-10 renal): 0.942 µM
GI50 (UACC-257 melanoma): 0.456 µM
GI50 (DU-145 prostate): 0.00205 µM
TGI (DU-145 prostate): 0.00873 µM and 0.0121 µM
GI50 (PC-3 prostate): 0.101 µM and 0.0286 µM
TGI (PC-3 prostate): 0.412 µM and 0.312 µM
GI50 (EKVX NSCLC): 0.0757 µM and 0.0501 µM
TGI (EKVX NSCLC): 0.223 µM
GI50 (NCI-H460 lung): 0.000746 µM
TGI (NCI-H460 lung): 0.113 µM
GI50 (SK-OV-3 ovarian): 0.348 µM
TGI (SK-OV-3 ovarian): 2.03 µM
TGI (MCF7 breast): 0.0696 µM
GI50 (HCT-116 colon): 0.185 µM and 0.0484 µM
TGI (HCT-116 colon): 0.348 µM and 0.207 µM

CC(C)CCCC(=O)CCCCCCC(=O)CCN(O)C(=O)C(N)CO (configuration not stated)
TGI (SF-539 CNS): 37.4 µM
TGI (TK-10 renal): 32.2 µM
TGI (UACC-257 melanoma): 35.1 µM
TGI (DU-145 prostate): 37.4 µM
TGI (PC-3 prostate): 28.2 µM
TGI (EKVX NSCLC): 27.5 µM
TGI (SK-OV-3 ovarian): 35.6 µM
TGI (MCF7 breast): 44.7 µM
TGI (HCT-116 colon): 38 µM
